How the values were obtained:
P. murina [1] = assay: Mouse model of prophylaxis for PCP (C3H/HeN mice, intranasal P. murina); assay type: in vivo, Pneumocystis murina; conditions: for Percent Survival at Day 7 / Percent Survival at Day 14 / Percent Survival at Day 21 / Percent Survival at Day 28 / Percent Survival at Day 35 / Percent Survival at Day 42: prophylaxis, mice
Procedure: Compound Preparation: SCY-078 (ibrexafungerp) was prepared in 0.5% methyl cellulose for oral administration. A correction factor of 1.37 for this lot was taken into account for salt and water content. Mice in the high dose group received 0.6 mg of SCY-078 BID, mid dose group received 0.3 mg of SCY-078 BID, and low dose group received 0.15 mg of SCY-078 BID, based on average mouse weights of 20 g.
P. murina prophylaxis study method: C3H/HeN mice (Charles River) were infected by intranasal inoculation of P. murina organisms at 2×10^6/50 μl from a liquid nitrogen repository. Prior to inoculation, the P. murina were pre-incubated overnight in RPMI 1640 medium supplemented with calf serum and antibiotics to eliminate any bacterial contamination. The immune systems of the mice were suppressed by the addition of dexamethasone at 4 mg/liter to acidified drinking water (hydrochloric acid at 1 ml/liter). Acidification is used to prevent secondary microbial infections. The mice were divided into a negative (non-treated) control group (control steroid—C/S), positive control group (trimethoprim/sulfamethoxazole—TMP/SMX) and treatment groups. SCY-078 was administered orally (po) BID at the specified doses. The mice were started on the prophylaxis regimen at the same time they were inoculated. Immune suppression and treatment continued for the entire 6-week study. At the conclusion of that time, the mice were euthanized by CO2 and lungs processed for analysis by homogenization. Slides were made from the lung homogenates at different dilutions and stained with Diff-Quik to quantify total nuclei (trophic forms) and with cresyl echt violet to quantify the asci (cyst forms).
(§1) Calculations: Efficacy was based on the reduction of organism burden between the treatment groups and the negative control group as determined by microscopic evaluation. The nuclei and asci counts for each lung were log transformed and statistical analysis was determined by the analysis of variance (ANOVA); individual groups were compared by the Student-Newman-Keuls t test for multiple comparisons using GraphPad Prism. Statistical significance was accepted at a P value≤0.05.

[2] = patients with HIV; cited from earlier work
[3] = human, in vivo
From the text: The safety and tolerability of SCY-078 has been evaluated in more than 900 subjects in ˜20 clinical trials, at different doses and treatment durations, including administration for up to 1 year. […] Serious adverse events possibly related to SCY-078 have been very rare and interruption or discontinuation of therapy due to adverse reactions has been uncommon. Additionally, the safety profile of oral SCY-078 has been evaluated in standard long-term non-clinical toxicology studies including administration for 9 months in dogs and 6 months in rats, at doses and exposures higher than those anticipated in humans, in line with ICH guidelines. The results from these non-clinical studies support the long-term administration of oral SCY-078 in humans. SCY-078 is currently under evaluation in ongoing clinical trials for the treatment of fungal infections such as candidiasis and aspergillosis. SCY-078 has not been evaluated in clinical trials for the treatment or prevention of PCP.

P. murina [4] = assay: Mouse model of treatment of PCP, 28-42 days (Balb/c mice); assay type: in vivo, Pneumocystis murina
Procedure: Compound Preparation: SCY-078 (ibrexafungerp) was prepared in 0.5% methyl cellulose for oral administration. A correction factor of 1.37 was taken into account for salt and water content. […]
P. murina treatment study methods: Balb/c mice ordered from Charles River were infected with P. murina pneumonia through exposure to mice with a fulminant P. murina infection (seed mice). These mice were immune suppressed by the addition of dexamethasone at 4 mg/liter to the drinking water. Sulfuric acid at 1 ml/liter was also added to the drinking water for disinfection. The seed mice were rotated within the cages for 2 weeks and then removed. After the mice developed a moderate infection level (approximately 5 weeks), the mice were divided into a negative control group (control steroid), positive control group (TMP/SMX), and treatment groups. Drugs to be tested were administered by oral gavage (PO) on a mg/kg/BID basis for up to 6 weeks. At the end of the treatment, the mice were euthanized by CO2 and lungs were processed for analysis. Slides were made from the lung homogenates at different dilutions and stained with Diff-Quik™ to quantify the nuclei (all life cycle stages) and with cresyl echt violet to quantify the asci.
as §1

P. murina [5] = assay: Mouse model of treatment of PCP, early response (C3H/HeN mice); assay type: in vivo, Pneumocystis murina
[6] = 30 mg/kg BID po, 6 weeks prophylaxis
[7] = all 3 dose levels (30, 15, 7.5 mg/kg BID po), 6 weeks prophylaxis, lung
[8] = 15 and 10 mg/kg groups, days 28 and 35
[9] = all dose levels (15, 10, 5 mg/kg BID po), days 28, 35 and 42
[10] = both dose levels (30 and 15 mg/kg BID po), Day 14 and Day 21

Trimethoprim-sulfamethoxazole [TMP/SMX, reference compound]
Percent Survival at Day 7 (P. murina [1]; 50/250 mg/kg 3x/wk): 100% | Percent Survival at Day 14 (P. murina [1]; 50/250 mg/kg 3x/wk): 90% | Percent Survival at Day 21 (P. murina [1]; 50/250 mg/kg 3x/wk): 90% | Percent Survival at Day 28 (P. murina [1]; 50/250 mg/kg 3x/wk): 90% | Percent Survival at Day 35 (P. murina [1]; 50/250 mg/kg 3x/wk): 90% | Percent Survival at Day 42 (P. murina [1]; 50/250 mg/kg 3x/wk): 90% | hepatitis [2]: 20 % of patients | thrombocytopenia [2]: 15 % of patients

CC(C)[C@@H](C)[C@@]1(C)CC[C@]2(C)[C@H]3CC[C@@H]4[C@@]5(COC[C@@]4(C)[C@@H](OC[C@](C)(N)C(C)(C)C)[C@H](n4ncnc4-c4ccncc4)C5)C3=CC[C@@]2(C)[C@@H]1C(=O)O [SCY-078, (1S,4aR,6aS,7R,8R,10aR,10bR,12aR,14R,15R)-15-[[(2R)-2-amino-2,3,3-trimethylbutyl]oxy]-8-[(1R)-1,2-dimethylpropyl]-14-[5-(4-pyridinyl)-1H-1,2,4-triazol-1-yl]-1,6,6a, 7,8,9,10,10a, 10b, 11,12,12a-dodecahydro-1,6a, 8,10a-tetramethyl-4H-1,4a-propano-2H-phenanthro [1,2-c]pyran-7-carboxylic acid]
interruption or discontinuation of therapy due to adverse reactions [3]: uncommon | most common adverse events [3]: mild to moderate, transient gastrointestinal disorders | serious adverse events possibly related to SCY-078 [3]: very rare | Percent Survival at Day 7 (P. murina [1]; 7.5 mg/kg BID po): 100% | Percent Survival at Day 14 (P. murina [1]; 7.5 mg/kg BID po): 90% | Percent Survival at Day 21 (P. murina [1]; 7.5 mg/kg BID po): 90% | Percent Survival at Day 28 (P. murina [1]; 7.5 mg/kg BID po): 90% | Percent Survival at Day 35 (P. murina [1]; 7.5 mg/kg BID po): 90% | Percent Survival at Day 42 (P. murina [1]; 7.5 mg/kg BID po): 90% | Percent Survival at Day 7 (P. murina [1]; 15 mg/kg BID po): 100% | Percent Survival at Day 14 (P. murina [1]; 15 mg/kg BID po): 90% | Percent Survival at Day 21 (P. murina [1]; 15 mg/kg BID po): 90% | Percent Survival at Day 28 (P. murina [1]; 15 mg/kg BID po): 80% | Percent Survival at Day 35 (P. murina [1]; 15 mg/kg BID po): 80% | Percent Survival at Day 42 (P. murina [1]; 15 mg/kg BID po): 80% | reduction of asci burden compared with TMP/SMX (P. murina [1]; [6]): performed equally as well | survival versus vehicle treated negative control group (P. murina [1]; [6]): significant improvement in survival | Percent Survival at Day 7 (P. murina [1]; 30 mg/kg BID po): 100% | Percent Survival at Day 14 (P. murina [1]; 30 mg/kg BID po): 100% | Percent Survival at Day 21 (P. murina [1]; 30 mg/kg BID po): 100% | Percent Survival at Day 28 (P. murina [1]; 30 mg/kg BID po): 100% | Percent Survival at Day 35 (P. murina [1]; 30 mg/kg BID po): 100% | Percent Survival at Day 42 (P. murina [1]; 30 mg/kg BID po, * statistically significant difference vs C/S group): 100* Percent | asci burden versus vehicle treated negative control group (C/S) (P. murina [1]; [7]): significantly reduced | nuclei burden versus vehicle treated negative control group (C/S) (P. murina [1]; [7]): significantly reduced | asci observed in lung (P. murina [4]; [8]): No asci were observed | reduction of asci burden compared with positive control (TMP/SMX) (P. murina [4]; [8]): worked equally as well | asci observed in lung (P. murina [4]; all 3 dose groups, day 42): some asci were observed | asci burdens versus vehicle treated negative control group (C/S) (P. murina [4]; [9]): significantly reduced | nuclei burdens versus vehicle treated negative control group (C/S) (P. murina [4]; [9]): significantly reduced | reduction of asci burden compared with positive control (TMP/SMX) (P. murina [4]; all dose levels, day 42): worked equally well | magnitude of the effect against nuclei burden compared with TMP/SMX (P. murina [5]; both dose levels): lower than observed with the TMP/SMX control | asci burdens versus vehicle treated negative control group (C/S) (P. murina [5]; [10]): significantly reduced | nuclei burdens versus vehicle treated negative control group (C/S) (P. murina [5]; [10]): significantly reduced | extent of asci burden reduction compared with TMP/SMX (P. murina [5]; both dose levels, Day 14 and Day 21): to a similar extent | reduction of asci burden compared with TMP/SMX (P. murina [5]; both dose levels, day 7): statistically significantly better
